Assay results taken from patent US20130259830A1, “CRTH2 MODULATORS” (Ironwood Pharmaceuticals, Inc., priority 2010, published 2013).

What was measured:
[1] = biological target: T1, CRTH2 (Homo sapiens, UniProt Q9Y5Y4); experiment: DPBS CD11b antagonist assay (CD11b expression in eosinophils challenged with 15R-Methyl-PGD2); assay type: cell-based; settings: polymorphonuclear cells in PBS with CaCl2/MgCl2; agonist 15R-Methyl-PGD2 10 nM; eosinophils gated by flow cytometry
T1 construct: endogenous in cells; host or cells: eosinophils in human whole blood
T1 sequence (Q9Y5Y4 1-395): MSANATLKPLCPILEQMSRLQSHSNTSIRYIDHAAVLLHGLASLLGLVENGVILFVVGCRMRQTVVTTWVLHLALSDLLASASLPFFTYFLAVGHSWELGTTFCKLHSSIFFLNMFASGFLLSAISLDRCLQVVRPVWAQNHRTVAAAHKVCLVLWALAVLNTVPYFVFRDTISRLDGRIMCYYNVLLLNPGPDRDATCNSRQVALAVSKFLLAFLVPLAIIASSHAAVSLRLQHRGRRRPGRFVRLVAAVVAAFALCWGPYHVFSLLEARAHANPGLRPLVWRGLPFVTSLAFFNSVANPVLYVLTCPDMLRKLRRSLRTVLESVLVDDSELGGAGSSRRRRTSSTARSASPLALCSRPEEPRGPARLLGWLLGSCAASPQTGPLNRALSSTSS
Protocol: DPBS CD111b Antagonist Assay.
The potential CRTH2 antagonist, activity of certain compounds was tested using a CD11b expression assay using essentially the method described by Monneret et al. (J Pharmacol Exp Ther 304:349-55, 2003). Briefly, polymorphonuclear cells (0.5 ml; 10^6/ml cells) in PBS containing 0.9 mM CaCl2 and 0.5 mM MgCl2) were preincubated with various concentrations of test compounds at room temperature for 10 minutes before they were challenged with the agonist 15R-Methyl-PGD2 (10 nM). The incubations were terminated by the addition of ice-cold FACSFlow (BD Biosciences; Cat#342003) and centrifugation (400 g for 5 minutes at 4° C.). The cells were then incubated for 30 minutes at 4° C. with a mixture of PE-labeled mouse anti-human VLA-4 (5 μl; BD Biosciences) and FITC-labeled mouse anti-human CD11b (10 μl; Beckman Coulter). The cells were then incubated with Optilyse C (0.25 ml; Beckman Coulter) for 15 minutes, centrifuged, and then fixed in PBS (0.4 ml; calcium and magnesium free) containing 1% formaldehyde. The distribution of fluorescence intensities among 60,000 cells was measured by flow cytometry. Eosinophils were gated out on the basis of their granularity (high side scatter) and labeling with VLA-4 (PE fluorescence). CD11b was then measured in the eosinophil region on the basis of fluorescence due to FITC. All data were corrected for the value obtained for the corresponding isotope control antibody.

[2] = biological target: T1, CRTH2; experiment: Human whole blood CD11b antagonist assay (CD11b expression in eosinophils challenged with 15-R-methyl-PGD2); assay type: cell-based; settings: 37° C. 10 minutes preincubation, agonist 15R-Methyl-PGD2 10 nM, eosinophils gated by flow cytometry
Protocol: Human Whole Blood […] Antagonist Assay (Modified from Nicholson, et al. Pulmonary Pharmacology and Therapeutics: 20 (2007); 52-59).
The potential CRTH2 antagonist activity of certain compounds was tested in human whole blood using an assay that tests the ability of the compounds to block the CD11b expression in eosinophils by 15-R-methyl-PGD2. A CRTH2 antagonist should block CD11b expression by subsequently added 15-Methyl-PGD2. Human whole blood (200 μL) was incubated at 37° C. for 10 minutes in the presence of various concentrations of test compounds before being challenged with the agonist 1-5R-Methyl-PGD2 (10 nM). Reactions were terminated by the addition of ice-cold PBS+0.5% BSA+2 mM EDTA (1 mL) and centrifugation (300×g for 5 minutes at 4° C.) Cells were then incubated at 4° C. for 10 min in the presence of human IgG. Cells were then incubated for 30-45 min with a mixture of PE-Cy5-labeled mouse anti-human CD16 (10 ul; BD Biosciences) and FITC-labeled mouse anti-human CD11b (10 μL; Beckman Coulter.) After rinsing (1 mL ice-cold PBS+0.5% BSA+2 mM EDTA), red blood cells were lysed by the addition of 1 mL ice-cold H2O to the cell pellet for 30 sec-1 min immediately followed by the addition of 3.5% NaCl (300 μL.) Cells were then rinsed (2×−1 ml ice cold PBS+0.5% BSA+2m MEDTA) and fixed in PBS containing 1% formaldehyde. The distribution of fluorescence intensities was measured by flow cytometry. Eosinophils were gated out on the basis of their granularity (high side scatter) and absence of CD-16. CD11b was then measured on this eosinophil population on the basis of fluorescence due to FITC.

SMILES	IC50 [1]	IC50 [2]
Cc1c(Cc2cc3ccccc3n2S(=O)(=O)c2ccccc2)c2c(n1CC(=O)O)CCC(C)(C)C2 [Compound I-1, 2-(2,5,5-trimethyl-3-((1-(phenylsulfonyl)-1H-indol-2-yl)methyl)-4,5,6,7-tetrahydro-1H-indol-1-yl)acetic acid]	< 1 nM	
CCOC(=O)N1CCN(S(=O)(=O)c2ccc(Cc3c4c(n(CC(=O)O)c3C)CCOC4)cc2)CC1 [Compound I-2, 2-(3-(4-(4-(Ethoxycarbonyl)piperazin-1-ylsulfonyl)benzyl)-2-methyl-6,7-dihydropyrano[4,3-b]pyrrol-1(4H)-yl)acetic acid]	1 to 5 nM	100 to 500 nM
Cc1c(Cc2cccnc2S(=O)(=O)c2ccccc2)c2c(n1CC(=O)O)CC(C)(C)CC2=O [Compound I-3, 2-(2,6,6-trimethyl-4-oxo-3-((2-(phenylsulfonyl)pyridin-3-yl)methyl)-4,5,6,7-tetrahydro-1H-indol-1-yl)acetic acid]	< 1 nM	5 to 20 nM
Cc1c(Cc2cccnc2S(=O)(=O)C2CC2)c2c(n1CC(=O)O)CC(C)(C)CC2=O [Compound I-4, 2-(3-((2-(cyclopropylsulfonyl)pyridin-3-yl)methyl)-2,6,6-trimethyl-4-oxo-4,5,6,7-tetrahydro-1H-indol-1-yl)acetic acid]	100 to 500 nM	100 to 500 nM
Cc1c(Cc2cccnc2S(=O)(=O)c2ccc(F)cc2)c2c(n1CC(=O)O)CC(C)(C)CC2=O [Compound I-5, 2-(3-((2-(4-fluorophenylsulfonyl)pyridin-3-yl)methyl)-2,6,6-trimethyl-4-oxo-4,5,6,7-tetrahydro-1H-indol-1-yl)acetic acid]	< 1 nM	5 to 20 nM
CCOC(=O)Cn1c(C)c(Cc2cccnc2S(=O)(=O)c2ccc(OC)cc2)c2c1CC(C)(C)CC2=O [Compound I-6, ethyl 2-(3-((2-(4-methoxyphenylsulfonyl)pyridin-3-yl)methyl)-2,6,6-trimethyl-4-oxo-4,5,6,7-tetrahydro-1H-indol-1-yl)acetate]	5 to 20 nM	500 to 3000 nM
COc1ccc(S(=O)(=O)c2ncccc2Cc2c3c(n(CC(=O)O)c2C)CC(C)(C)CC3=O)cc1 [Compound I-7, 2-(3-((2-(4-methoxyphenylsulfonyl)pyridin-3-yl)methyl)-2,6,6-trimethyl-4-oxo-4,5,6,7-tetrahydro-1H-indol-1-yl)acetic acid]	< 1 nM	20 to 100 nM
CCOC(=O)Cn1c(C)c(Cc2cccnc2S(=O)(=O)c2ccc(F)cc2)c2c1CC(C)(C)CC2=O [Compound I-8, ethyl 2-(3-((2-(4-fluorophenylsulfonyl)pyridin-3-yl)methyl)-2,6,6-trimethyl-4-oxo-4,5,6,7-tetrahydro-1H-indol-1-yl)acetate]	20 to 100 nM	500 to 3000 nM
CCOC(=O)Cn1c(C)c(Cc2cccnc2S(=O)(=O)c2ccccc2)c2c1CC(C)(C)CC2=O [Compound I-9, ethyl 2-(2,6,6-trimethyl-4-oxo-3-((2-(phenylsulfonyl)pyridin-3-yl)methyl)-4,5,6,7-tetrahydro-1H-indol-1-yl)acetate]	100 to 500 nM	500 to 3000 nM
CCOC(=O)Cn1c(C)c(Cc2cccnc2S(=O)(=O)c2ccc(C(F)(F)F)cc2)c2c1CC(C)(C)CC2=O [Compound I-10, Ethyl 2-(2,6,6-trimethyl-4-oxo-3-((2-(4-(trifluoromethyl)phenylsulfonyl)pyridin-3-yl)methyl)-4,5,6,7-tetrahydro-1H-indol-1-yl)acetate]	1 to 5 nM	100 to 500 nM
CCOC(=O)Cn1c(C)c(Cc2cccnc2S(=O)(=O)c2cccc(OC)c2)c2c1CC(C)(C)CC2=O [Compound I-11, Ethyl 2-(3-((2-(3-methoxyphenylsulfonyl)pyridin-3-yl)methyl)-2,6,6-trimethyl-4-oxo-4,5,6,7-tetrahydro-1H-indol-1-yl)acetate]	100 to 500 nM	500 to 3000 nM
Cc1c(Cc2cccnc2S(=O)(=O)c2ccc(C(F)(F)F)cc2)c2c(n1CC(=O)O)CC(C)(C)CC2=O [Compound I-12, 2-(2,6,6-Trimethyl-4-oxo-3-((2-(4-(trifluoromethyl)phenylsulfonyl)pyridin-3-yl)methyl)-4,5,6,7-tetrahydro-1H-indol-1-yl)acetic acid]	100 to 500 nM	500 to 3000 nM
COc1cccc(S(=O)(=O)c2ncccc2Cc2c3c(n(CC(=O)O)c2C)CC(C)(C)CC3=O)c1 [Compound I-13, 2-(3-((2-(3-Methoxyphenylsulfonyl)pyridin-3-yl)methyl)-2,6,6-trimethyl-4-oxo-4,5,6,7-tetrahydro-1H-indol-1-yl)acetic acid]	1 to 5 nM	20 to 100 nM
CCOC(=O)Cn1c(C)c(Cc2cccnc2S(=O)(=O)c2ccc(Cl)cc2)c2c1CC(C)(C)CC2=O [Compound I-14, Ethyl 2-(3-((2-(4-chlorophenylsulfonyl)pyridin-3-yl)methyl)-2,6,6-trimethyl-4-oxo-4,5,6,7-tetrahydro-1H-indol-1-yl)acetate]	100 to 500 nM	500 to 3000 nM
Cc1c(Cc2cccnc2S(=O)(=O)c2ccc(Cl)cc2)c2c(n1CC(=O)O)CC(C)(C)CC2=O [Compound I-15, 2-(3-((2-(4-Chlorophenylsulfonyl)pyridin-3-yl)methyl)-2,6,6-trimethyl-4-oxo-4,5,6,7-tetrahydro-1H-indol-1-yl)acetic acid]	< 1 nM	5 to 20 nM
CCOC(=O)Cn1c(C)c(Cc2cccnc2S(=O)(=O)c2ccc(C)cc2)c2c1CC(C)(C)CC2=O [Compound I-16, Ethyl 2-(2,6,6-trimethyl-4-oxo-3-((2-tosylpyridin-3-yl)methyl)-4,5,6,7-tetrahydro-1H-indol-1-yl)acetate]	20 to 100 nM	500 to 3000 nM
Cc1c(Cc2cccnc2S(=O)(=O)c2ccccc2C(F)(F)F)c2c(n1CC(=O)O)CC(C)(C)CC2=O [Compound I-17, 2-(2,6,6-Trimethyl-4-oxo-3-((2-(2-(trifluoromethyl)phenylsulfonyl)pyridin-3-yl)methyl)-4,5,6,7-tetrahydro-1H-indol-1-yl)acetic acid]	< 1 nM	5 to 20 nM
CCOC(=O)Cn1c(C)c(Cc2cccnc2S(=O)(=O)c2ccc(F)cc2F)c2c1CC(C)(C)CC2=O [Compound I-18, Ethyl 2-(3-((2-(2,4-difluorophenylsulfonyl)pyridin-3-yl)methyl)-2,6,6-trimethyl-4-oxo-4,5,6,7-tetrahydro-1H-indol-1-yl)acetate]	100 to 500 nM	500 to 3000 nM
Cc1c(Cc2cccnc2S(=O)(=O)c2ccc(F)cc2F)c2c(n1CC(=O)O)CC(C)(C)CC2=O [Compound I-19, 2-(3-((2-(2,4-Difluorophenylsulfonyl)pyridin-3-yl)methyl)-2,6,6-trimethyl-4-oxo-4,5,6,7-tetrahydro-1H-indol-1-yl)acetic acid]	1 to 5 nM	20 to 100 nM
Cc1c(Sc2ccccc2N(C)S(=O)(=O)c2ccccc2)c2c(n1CC(=O)O)CC(C)(C)CC2 [Compound I-53, 2-(2,6,6-trimethyl-3-(2-(N-methylphenylsulfonamido)phenylthio)-4,5,6,7-tetrahydro-1H-indol-1-yl)acetic acid]		500 to 3000 nM
